Reference: patent publication US10357481B2 (MERCK SHARP & DOHME CORP., priority 2015, dated 2019)
Where two headings read alike, the source gives them in different places.

Tests used:
human PDE2A1 = target: T1, human PDE2A1 (Homo sapiens, UniProt O00408); assay: IMAP FP PDE selectivity panel, human PDE2A1; format: biochemical
T1 construct: GST; purchased BPS Bioscience (San Diego, Calif.) 60020; host or cells: insect cells
How it was run: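 Human PDE2A1 tested alongside PDE1–11 by IMAP fluorescence polarization at room temperature. Substrate was 50 nM FAM-cAMP plus 1000 nM cGMP, buffer pH 7.2 with MgCl2 and DTT, enzyme set for 20% conversion. Ten 3-fold compound dilutions; 60 min reaction, then IMAP binding solution, 1 h, parallel/perpendicular fluorescence read.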

Rhesus PDE2A3 = target: T2, Rhesus PDE2A3 (Macaca mulatta, UniProt B3VTJ2); assay: PDE2 fluorescence polarization (IMAP FP) inhibition assay, rhesus PDE2A3; format: biochemical, rhesus macaque
T2 construct: made in house; host or cells: AD293 cells, transiently transfected with pcDNA3.3-TOPO; lysate supernatant used
T2 sequence (B3VTJ2 1-941): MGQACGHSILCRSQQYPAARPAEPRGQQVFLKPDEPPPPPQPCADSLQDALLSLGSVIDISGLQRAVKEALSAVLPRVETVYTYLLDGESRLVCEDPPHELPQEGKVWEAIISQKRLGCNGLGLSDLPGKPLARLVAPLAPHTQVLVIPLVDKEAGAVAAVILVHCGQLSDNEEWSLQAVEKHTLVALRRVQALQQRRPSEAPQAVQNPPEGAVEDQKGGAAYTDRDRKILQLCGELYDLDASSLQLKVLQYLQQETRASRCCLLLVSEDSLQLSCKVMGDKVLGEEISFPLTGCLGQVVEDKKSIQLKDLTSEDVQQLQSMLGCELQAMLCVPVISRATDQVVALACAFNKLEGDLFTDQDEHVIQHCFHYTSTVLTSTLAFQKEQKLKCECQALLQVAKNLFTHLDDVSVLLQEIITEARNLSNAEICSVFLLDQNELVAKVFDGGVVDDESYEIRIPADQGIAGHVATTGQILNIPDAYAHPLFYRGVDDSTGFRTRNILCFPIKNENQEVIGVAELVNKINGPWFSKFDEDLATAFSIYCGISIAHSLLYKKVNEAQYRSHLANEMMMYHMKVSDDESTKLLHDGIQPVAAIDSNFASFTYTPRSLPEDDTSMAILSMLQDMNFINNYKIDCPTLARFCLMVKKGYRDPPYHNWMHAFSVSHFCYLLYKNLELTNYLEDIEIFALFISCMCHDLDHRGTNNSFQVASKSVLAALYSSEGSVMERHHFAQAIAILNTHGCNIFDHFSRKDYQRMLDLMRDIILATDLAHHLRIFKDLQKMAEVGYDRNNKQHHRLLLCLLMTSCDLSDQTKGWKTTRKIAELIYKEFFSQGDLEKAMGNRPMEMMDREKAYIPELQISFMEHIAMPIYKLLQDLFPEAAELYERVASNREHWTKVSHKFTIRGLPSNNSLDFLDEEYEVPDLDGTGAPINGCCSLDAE
Method: The activity of the compounds in accordance with the present invention as PDE2 inhibitors may be readily determined using a fluorescence polarization (FP) methodology (Huang, W., et al., J. Biomol Screen, 2002, 7: 215).
In a typical experiment the PDE2 inhibitory activity of the compounds of the present invention was determined in accordance with the following experimental method. Rhesus PDE2A3 was amplified from rhesus macaque brain cDNA (Biochain Institute, Hayward, Calif.) using primers based on human PDE2A sequence (accession NM_002599.3) where the forward primer containing a Kozak consensus was 5′-[…]-3′ and the reverse primer was 5′-[…]-3′. Amplification with Easy-A High-Fidelity PCR cloning enzyme (Stratagene, La Jolla, Calif.) was 95° C. for 2 minutes followed by thirty three cycles of 95° C. for 40 seconds, 52° C. for 30 seconds, and 72° C. for 2 minutes 48 seconds. Final extension was 72° C. for 7 minutes. The PCR product was TA cloned into pcDNA3.3-TOPO (Invitrogen, Carlsbad, Calif.) aaccording to standard protocol. A consensus sequence was developed from multiple clones and then deposited into GenBank (EU812167). AD293 cells (Stratagene, La Jolla, Calif.) with 70-80% confluency were transiently transfected with rhesus PDE2A3/pcDNA3.3-TOPO using Lipofectamine 2000 according to manufacturer specifications (Invitrogen, Carlsbad, Calif.). Cells were harvested 48 hours post-transfection and lysed by sonication (setting 3, 10×5 sec pulses) in a buffer containing 20 mM HEPES pH 7.4, 1 mM EDTA and Complete Protease Inhibitor Cocktail Tablets (Roche, Indianapolis, Ind.). Lysate was collected by centrifugation at 75,000×g for 20 minutes at 4° C. and supernatant utilized for evaluation of PDE2 activity. The fluorescence polarization assay for cyclic nucleotide phosphodiesterases was performed using an IMAP® FP kit supplied by Molecular Devices, Sunnyvale, Calif. (product # R8139). […] Assays were performed at room temperature in 384-well microtiter plates with an incubation volume of 20.2 μL. Solutions of test compounds were prepared in DMSO and serially diluted with DMSO to yield 8 μL of each of 10 solutions differing by 3-fold in concentration, at 32 serial dilutions per plate. […] 0% of inhibition is determined by using DMSO (1% final concentrations).
A Labcyte Echo 555 (Labcyte, Sunnyvale, Calif.) is used to dispense 200 nL from each well of the titration plate to the 384 well assay plate. Ten microliters of a solution of enzyme (1/2000 final dilution from aliquots; sufficient to produce 20% substrate conversion) was added to the assay plate. Next 10 uL of a separate solution of the substrate FAM-labeled cAMP (50 nM final concentration product # R7506 from Molecular Devices) and the activator cGMP (1 uM final concentration), prepared in the assay buffer (10 mM Tris HCl, pH 7.2, 10 mM MgCl2, 0.05% NaN3 0.01% Tween-20, and 1 mM DTT) was added to the assay plate and shaken to mix. The reaction is allowed to proceed at room temperature for 60 minutes. A binding solution is then made from the kit components, comprised of 80% Solution A, 20% Solution B and binding reagent at a volume of 1/600 the total binding solution. The enzymatic reaction is stopped by addition of 60 μL of the binding solution to each well of the assay plates and the plates are sealed and shaken for 30 seconds. The plate was incubated at room temperature for at least one hour prior to determining the fluorescence polarization (FP). The parallel and perpendicular fluorescence of each well of the plate was measured using a Tecan Genios Pro plate reader (Tecan, Switzerland) or Perkin Elmer EnVision™ plate reader (Waltham, Mass.). Fluorescence polarization (mP) was calculated from the parallel (S) and perpendicular (P) fluorescence of each sample well and the analogous values for the median control well, containing only substrate (So and Po), using the following equation: Polarization (mP)=1000*(S/So−P/Po)/(S/So+P/Po).

[1] = Lab B, read-out: Rhesus PDE2 Ki (nM) Lab B
[2] = Lab A, read-out: Rhesus PDE2 Ki (nM) Lab A
[3] = Lab B, read-out: Human PDE2 Ki (nM) Lab B

T1 sequence (O00408 1-920 isoform O00408-2): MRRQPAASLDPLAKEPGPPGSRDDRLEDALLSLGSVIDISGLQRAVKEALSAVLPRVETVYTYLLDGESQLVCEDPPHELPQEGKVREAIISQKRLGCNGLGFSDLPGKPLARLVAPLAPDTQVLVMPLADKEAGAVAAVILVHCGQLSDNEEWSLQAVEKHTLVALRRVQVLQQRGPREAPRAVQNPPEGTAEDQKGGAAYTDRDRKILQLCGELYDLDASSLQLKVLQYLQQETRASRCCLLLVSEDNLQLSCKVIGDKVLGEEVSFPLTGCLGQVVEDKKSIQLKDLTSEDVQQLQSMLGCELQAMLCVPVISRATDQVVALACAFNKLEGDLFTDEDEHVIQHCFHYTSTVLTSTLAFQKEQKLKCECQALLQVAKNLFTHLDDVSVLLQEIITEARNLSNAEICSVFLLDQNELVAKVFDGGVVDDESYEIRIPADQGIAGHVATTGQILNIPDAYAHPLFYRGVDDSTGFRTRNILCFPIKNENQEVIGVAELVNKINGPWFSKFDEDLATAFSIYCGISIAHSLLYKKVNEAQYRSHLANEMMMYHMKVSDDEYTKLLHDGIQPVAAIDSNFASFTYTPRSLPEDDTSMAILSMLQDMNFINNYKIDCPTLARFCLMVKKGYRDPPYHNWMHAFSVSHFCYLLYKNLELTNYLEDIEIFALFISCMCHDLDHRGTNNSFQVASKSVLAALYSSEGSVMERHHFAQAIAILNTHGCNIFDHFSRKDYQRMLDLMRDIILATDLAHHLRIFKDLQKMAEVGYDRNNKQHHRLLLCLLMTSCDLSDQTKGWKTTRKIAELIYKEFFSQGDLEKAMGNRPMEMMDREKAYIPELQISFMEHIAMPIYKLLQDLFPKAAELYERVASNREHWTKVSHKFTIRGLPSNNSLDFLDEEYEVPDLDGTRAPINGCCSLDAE

Ki (human PDE2A1; [3]) [nM] | Compound | other results
– | Cc1cc(N[C@@H](c2ccc(OC(F)(F)F)c(F)c2)C(C)(C)O)n2ncnc2n1 (single isomer, unassigned) [Example 92] | Ki (human PDE2A1; Human PDE2 Ki (nM) Lab B): 5.4 nM; Ki (Rhesus PDE2A3; [1]): 6.8 nM
– | CC(Nc1ccnc2ncnn12)c1ccc(OC(F)(F)F)cc1 (stereo not shown) [Example 84, N-{1-[4-(Trifluoromethoxy)phenyl]ethyl}[1,2,4]triazolo[1,5-a]pyrimidin-7-amine] | Ki (Rhesus PDE2A3; [2]): 2770 nM
– | Cc1cc(N[C@@H](c2ccc(C(F)(F)F)c(F)c2)C(C)(C)O)n2ncnc2n1 [Example 98, (1S)-1-[3-Fluoro-4-(trifluoromethyl)phenyl]-2-methyl-1-[(5-methyl [1,2,4]triazolo[1,5-a]pyrimidin-7-yl)amino]propan-2-ol] | Ki (human PDE2A1; Human PDE2 Ki (nM) Lab B): 10 nM; Ki (Rhesus PDE2A3; [1]): 12 nM
35 | CCc1cc(NC2(c3ccc(C(F)(F)F)c(F)c3)CC2)n2ncnc2n1 [Example 68, 5-Ethyl-N-{1-[3-fluoro-4-(trifluoromethyl)phenyl]cyclopropyl}[1,2,4]triazolo[1,5-a]pyrimidin-7-amine] | Ki (Rhesus PDE2A3): 29 nM
– | CC(Nc1ccnc2ncnn12)c1ccc(C(F)(F)F)cc1 (stereo not shown) [Example 83, N-{1-[4-(Trifluoromethyl)phenyl]ethyl}[1,2,4]triazolo[1,5-a]pyrimidin-7-amine] | Ki (Rhesus PDE2A3; [2]): 4680 nM
– | Cc1cc(NC2(c3ccc(C(F)(F)F)c(F)c3)CC2)n2ncnc2n1 [Example 57, N-{1-[3-Fluoro-4-(trifluoromethyl)phenyl]cyclopropyl}-5-methyl [1,2,4]triazolo[1,5-a]pyrimidin-7-amine] | Ki (human PDE2A1; Human PDE2 Ki (nM) Lab B): 21 nM; Ki (Rhesus PDE2A3; [1]): 22 nM
11 | Cc1cc(NC(c2ccc(C3(C)CC3)cc2)C(C)(C)O)n2ncnc2n1 (single isomer, unassigned) [Example 121, (1R or S)-2-Methyl-1-[4-(1-methyl-cyclopropyl)phenyl]-1-[(5-methyl[1,2,4]triazolo[1,5-a]pyrimidin-7-yl)amino]propan-2-ol] | –
1690 | COc1cc(N[C@@H](c2ccc(C(F)(F)F)c(F)c2)C(C)(C)O)n2ncnc2n1 (single isomer, unassigned) [Example 237] | –
258 | Cc1cc(NC(c2ccc(C(F)(F)F)nc2)C(C)(C)O)n2ncnc2n1 (single isomer, unassigned) [Example 225, (R)- or (S)-2-Methyl-1-(5-methyl-[1,2,4]triazolo [1,5-a]pyrimidin-7-ylamino)-1-(6-(trifluoromethyl)pyridin-3-yl) propan-2-ol] | –
> 2960 | CC(C)(N)C(Nc1cc(C(F)(F)F)nc2ncnn12)c1ccc(C(F)(F)F)c(F)c1 (single isomer, unassigned) [Example 254, (S)- or (R)-1-(3-Fluoro-4-(trifluoromethyl)phenyl)-2-methyl-N^1-(5-(trifluoromethyl)-[1,2,4]triazolo [1,5-a]pyrimidin-7-yl) propane-1,2-diamine] | –
113 | CCCc1nc2nc(C)cc(NC3(c4ccc(C(F)(F)F)c(F)c4)CC3)n2n1 [Example 194, N-(1-(3-Fluoro-4-(trifluoromethyl)phenyl)cyclopropyl)-5-methyl-2-propyl-[1,2,4]triazolo [1,5-a]pyrimidin-7-amine] | –
25 | CC(C)(O)C(Nc1cc(C(F)(F)F)nc2ncnn12)c1ccc(OC(F)(F)F)cc1F (single isomer, unassigned) [Example 172, (1R or S)-1-[2-Fluoro-4-(trifluoromethoxy)phenyl]-2-methyl-1-{[5-(trifluoromethyl) [1,2,4]triazolo [1,5-a]pyrimidin-7-yl]amino} propan-2-ol] | –
> 2960 | CC(C)(C)c1cc(NC(c2ccc(OC(F)(F)F)c(F)c2)C(C)(C)O)n2ncnc2n1 (single isomer, unassigned) [Example 146, (1S or R)-1-[(5-tert-Butyl[1,2,4]triazolo[1,5-a]pyrimidin-7-yl)amino]-1-[3-fluoro-4-(trifluoro-methoxy)phenyl]-2-methylpropan-2-ol] | –
74 | Cc1cc(N[C@@H](c2ccc(C(F)(F)F)c(F)c2)C(C)(C)C)n2nc(C(F)F)nc2n1 [Example 207, (R)-2-(Difluoromethyl)-N-(1-(3-fluoro-4-(trifluoromethyl)phenyl)-2,2-dimethylpropyl)-5-methyl-[1,2,4]triazolo [1,5-a]pyrimidin-7-amine] | –
111 | CC(O)c1cc(NC2(c3ccc(C(F)(F)F)c(F)c3)CC2)n2ncnc2c1 (stereo not shown) [Example 275, 1-(5-((1-(3-Fluoro-4-(trifluoromethyl)phenyl)cyclopropyl)amino)-[1,2,4]triazolo[1,5-a]pyridin-7-yl)ethanol] | –
61 | CC[C@@H](Nc1cc(C)nc2ncnn12)c1ccc(C(F)(F)F)c(F)c1 [Example 16, N-{(1R)-1-[3-Fluoro-4-(trifluoromethyl)phenyl]propyl}-5-methyl[1,2,4]triazolo[1,5-a] pyrimidin-7-amine] | –
> 2960 | Cc1cc(N[C@H](c2ccc(OC(F)(F)F)cc2)C(C)(C)O)n2ncnc2n1 [Example 97, (1R)-2-Methyl-1-[(5-methyl [1,2,4]triazolo[1,5-a]pyrimidin-7-yl)amino]-1-[4-(trifluoromethoxy)phenyl]propan-2-ol] | –

Compound | Ki (human PDE2A1; [3]) [nM] | other results
(R or S)-2,2-Dimethyl-3-(3-methyl-4-(trifluoromethoxy)phenyl)-3-(5-methyl-[1,2,4]triazolo[1,5-a]pyrimidin-7-ylamino)propan-1-ol [Example 231] | 7.3 | –
